Source: ChEMBL document CHEMBL3046286, “4-Fluorophenylhydrazones as potential COX-2 inhibitors: a novel, efficient, one pot solid phase synthesis, docking study and pharmacological evaluation” (2013)

Key:
Format in all cases: functional
Rattus norvegicus [1] = test: Antiinflammatory activity in Wistar albino rat assessed as carrageenan-induced paw edema at 50 mg/kg, po administered 30 mins prior to carrageenan-challenge measured after 3 hrs relative to control; conditions: read-out: INH
Rattus norvegicus [2] = test: Antiinflammatory activity in Wistar albino rat assessed as carrageenan-induced paw edema at 50 mg/kg, po administered 30 mins prior to carrageenan-challenge measured after 2 hrs relative to control
Rattus norvegicus [3] = test: Antiinflammatory activity in Wistar albino rat assessed as carrageenan-induced paw edema at 50 mg/kg, po administered 30 mins prior to carrageenan-challenge measured after 1 hr relative to control
Rattus norvegicus [4] = test: Antiinflammatory activity in Wistar albino rat assessed as carrageenan-induced paw edema at 50 mg/kg, ip administered 30 mins prior to carrageenan-challenge measured after 2 hrs relative to control; conditions: route intraperitoneal
Rattus norvegicus [5] = test: Antiinflammatory activity in Wistar albino rat assessed as carrageenan-induced paw edema at 50 mg/kg, ip administered 30 mins prior to carrageenan-challenge measured after 3 hrs relative to control; conditions: route intraperitoneal
Rattus norvegicus [6] = test: Antiinflammatory activity in Wistar albino rat assessed as carrageenan-induced paw edema at 50 mg/kg, ip administered 30 mins prior to carrageenan-challenge measured after 1 hr relative to control; conditions: route intraperitoneal

Structure (SMILES) | inhibition in vivo at 50 mg/kg (Rattus norvegicus [1]) [%] | inhibition in vivo at 50 mg/kg (Rattus norvegicus [2]) [%] | inhibition in vivo at 50 mg/kg (Rattus norvegicus [3]) [%] | inhibition in vivo at 50 mg/kg (Rattus norvegicus [4]) [%] | inhibition in vivo at 50 mg/kg (Rattus norvegicus [5]) [%] | inhibition in vivo at 50 mg/kg (Rattus norvegicus [6]) [%]
O=C(c1ccc(Br)cc1)C(NNc1ccc(F)cc1)C(=O)C(F)(F)F (stereo not drawn) | 43.2 | 30.4 | 17.3 | – | – | –
COc1ccc(C(=O)C(NNc2ccc(F)cc2)C(=O)C(F)(F)F)cc1 (stereo not drawn) | 40.6 | 26.6 | 15.4 | – | – | –
O=C(c1ccc([N+](=O)[O-])cc1)C(NNc1ccc(F)cc1)C(=O)C(F)(F)F (stereo not drawn) | 18.2 | 8.86 | 5.05 | – | – | –
O=C(c1ccc(F)cc1)C(NNc1ccc(F)cc1)C(=O)C(F)(F)F (stereo not drawn) | 42.4 | 28.5 | 18.3 | – | – | –
O=C(c1cccs1)C(NNc1ccc(F)cc1)C(=O)C(F)(F)F (stereo not drawn) | 17.4 | 7.93 | 4.11 | – | – | –
O=C(O)Cc1ccccc1Nc1c(Cl)cccc1Cl [DICLOFENAC SODIUM] | – | – | – | 30.4 | 46.8 | 20.1
